{"source": "patent US11446270B2", "about": "“Leonurine crystal and use thereof in preparation of insulin sensitizer, hypoglycemic drug and lipid-lowering drug” (ZHUHAI HENGQIN NEW DISTRICT ZHONGZHU ZHENGTAI MEDICAL …, priority 2017, dated 2022)", "key": {"[1]": {"assay": "Hygroscopicity, dynamic vapor sorption (DVS), 0-95% RH", "assay_type": "physicochemical", "conditions": "for hygroscopicity (in words) / change of crystal form: range of 0-95% relative humidity", "method": "Dynamic vapor sorption (DVS) method, instrument model: SMS DVS Intrinsic, 0˜95% RH, temperature: 25° C.; FTIR method, instrument model: Nicolet 6700, sectral range: 4000˜400 cm^−1, resolution ratio: 4 cm^−1, scanning times: 32, the infrared spectra of the samples were determined by KBr pressed-disk technique method, temperature: 25° C.;\nIn this invention, it is named as leonurine crystal form A, which is monohydrate crystal form, square block crystal (as shown in FIG. 13), no crystal transformation before melting, dehydrates at 120˜150° C. and transform into anhydrous crystal form B, and decomposes at about 250° C. […] Under the condition of, in the suspension experiment at 25° C., in methanol, ethanol, isopropanol, acetone, acetonitrile, tetrahydrofuran, nitromethane, ethyl acetate, isopropyl acetate, isoamyl alcohol, methyl tert-butyl ether, toluene, methyl isobutyl ketone, n-hexane, n-heptane, ether, dichloromethane, chloroform, petroleum ether, water and other solvents; and under the condition of, in the suspension experiment at 50° C., in methanol, ethanol, acetone, methyl ethyl ketone, isopropyl acetate, methyl tert-butyl ether, toluene, n-hexane, n-heptane, diethyl ether, chloroform, petroleum ether, water and other solvents; and under most solvent conditions in suspension and volatilization of mixed solvents at 25° C. and 50° C., form A can be obtained. […] In a range of 0˜95% RH, the dehydration and water absorption behavior of the crystal form is very weak."}, "Sprague-Dawley male rats": {"test_system": "Sprague-Dawley male rats", "assay": "Chronic continuous administration for 7 days, insulin sensitivity test in rats", "assay_type": "in vivo", "conditions": "rat, vs control, listed as leonurine crystal form A", "method": "Twenty Sprague-Dawley male rats (body weight 180-220 g) were randomly divided into 4 groups, give control solvent and three different doses of leonurine crystal form A respectively. The control solvent group was given an equal volume of DMSO, and the treatment groups were administered at three doses of 30 mg/kg, 60 mg/kg and 120 mg/kg respectively, 5 rats per group, where the leonurine crystal form A was dissolved in DMSO at concentrations of 30 mg/ml, 60 mg/ml and 120 mg/ml respectively. The volume of solvent used per rat is one millilitre per kilogram of body weight. The rats were administered intragastrically with the drugs or control solvent once a day for 7 consecutive days, and performing insulin sensitivity test on the 7th day. The rats were treated with the drugs or control solvent on the day of the test, and weighed before administration, then taking blood from tail vein to measure blood glucose. Each rat was tested for insulin sensitivity 1 hour after administration of the drugs or control solvent, and the rats were not fed food for 4 hours before the insulin sensitivity test to make them fasted but still given water. The insulin dose in the insulin sensitivity test is 0.75 units per kilogram of body weight, and insulin was injected through intraperitonealion. Blood glucose was measured before injection and at 15, 30, 60, 90, and 120 minutes after injection. The data were analyzed by SPSS statistical software (version 11.5), and the results were expressed as mean ±standard error of the mean (mean±SEM). Multiple group comparisons were tested by one-way analysis of variance (ANOVA). P<0.05 was considered as statistically significant."}, "[2]": {"assay": "Chronic administration for 3 weeks, body weight of rats", "assay_type": "in vivo, rat", "conditions": "fourth week (one week after discontinuation), vs solvent control, listed as leonurine crystal form A", "method": "Forty male Sprague-Dawley rats weighed 180 to 220 g were randomly divided into 4 groups (10 rats each group): control group are treated with equal volume of DMSO, and the treatment groups were administered at 30 mg/kg per day, 60 mg/kg per day, and 120 mg/kg per day of leonurine crystal form A respectively, where leonurine crystal form A was dissolved in DMSO at concentrates of 30 mg/ml, 60 mg/ml and 120 mg/ml, and the volume of vehicle administered intragastrically in each rat was 1 ml per kg of body weight. The rats were treated with leonurine crystal form A or DMSO once a day continuously for 3 weeks, and the body weight and fasting blood-glucose were detected at third week. The rats were fasted (allowed water ad libitum) for 12 h before experiment. Fasting blood-glucose and body weight were tested after 1 h of administered drugs. The rats were not given drugs on the next days for one week, and the body weight and fasting blood-glucose were detected at forth week. The data were analyzed by SPSS statistical software (version 11.5), and results were expressed as the mean±standard error of the mean (mean±SEM). Multiple group comparisons were tested by one-way analysis of variance (ANOVA). P<0.05 was considered as statistically significant."}, "ApoE knockout mice": {"test_system": "ApoE knockout mice", "assay": "Serum lipids in hyperlipidemia ApoE knockout mice on high fat diet", "assay_type": "in vivo", "conditions": "4 weeks", "method": "Fifteen C57BL/6J mice (male, 6-8 weeks) and seventy-five ApoE knockout mice (male, 6-8 weeks) were used for experiments. C57BL/6J mice were fed with normal diet, and ApoE knockout mice were fed for 1 week with a diet of normal/high fat diet ratio of 1/1.\nMice were weighed before administered drugs every week, where the dosage of the drug for mice is calculate according to the weight; and housed under 24±1° C. room temperature and 55±5% air humidity condition, and allowed enough food and water ad libitum. After the drug administration continuously for 4 weeks, the mice were anesthetized with pentobarbital sodium according to body weight. Blood (0.5 ml per mouse) was drawn from the inner canthus vein for hematology analysis. Hematology analysis: blood samples were let for standing for 2 h and centrifuged (3000 rpm, 10 min, 4° C.) to obtain serum. The total cholesterol (TC), triacylglycerol (TG) and low-density cholesterol (LDL-C) levels in the serum samples were assessed using automatic biochemical analyzer. Statistical analysis: GraphPad Prism 5 software was used to analyze and draw figure. Results were expressed as the mean±standard (mean±SD), and statistical analysis was performed by one-way analysis of variance (ANOVA) or student's t test. A difference with P<0.05 was considered statistically significant. Statistical significance was set at *P<0.05, **P<0.01, ***P<0.001 versus the model group."}, "[3]": {"conditions": "previous toxicological study; cited from earlier work"}, "[4]": {"conditions": "listed as leonurine crystal form A"}, "[5]": {"conditions": "dose not stated, listed as leonurine crystal form A"}, "[6]": {"conditions": "middle dose group 20 mg/kg/day intragastric, vs model group, listed as leonurine crystal form A"}}, "note": "“Also recorded” adds a separate entry of the source.", "data": [{"smiles": "COc1cc(C(=O)OCCCCNC(=N)N)cc(OC)c1O", "note": "[crystal form A, 4-guanidino-1-butyl 4-hydroxy-3,5-dimethoxybenzoate]", "values": [{"measurement": "hygroscopicity, water absorption", "setting": "[1]; 60% RH", "result": "60% RH, water absorption 0.07%"}, {"measurement": "hygroscopicity, water absorption", "setting": "[1]; 80% RH", "result": "80% RH, water absorption 0.12%"}, {"measurement": "hygroscopicity (in words)", "setting": "[1]", "result": "no or almost no hygroscopicity"}, {"measurement": "change of crystal form", "setting": "[1]; listed as Crystal Form A", "result": "didn't change"}, {"measurement": "hygroscopicity (in words)", "setting": "[1]; listed as Crystal Form A", "result": "no or almost no hygroscopicity"}, {"measurement": "change of crystal form", "setting": "[1]; [4]", "result": "does not change"}, {"measurement": "hygroscopicity (in words)", "setting": "[1]; [4]", "result": "no or almost no hygroscopicity"}, {"measurement": "moisture absorption", "setting": "[1]; relative humidity from 0 to 95%", "result": "about 0.15%"}, {"measurement": "insulin sensitivity curve", "setting": "Sprague-Dawley male rats; 30 mg/kg/d for 7 days, 30 minute time point, 30 mg/kg/day", "result": "increased insulin sensitivity; also recorded: decreased significantly"}, {"measurement": "insulin sensitivity curve", "setting": "Sprague-Dawley male rats; 30 mg/kg/d for 7 days, 60 minute time point, 30 mg/kg/day", "result": "increased insulin sensitivity; also recorded: decreased significantly"}, {"measurement": "insulin sensitivity curve", "setting": "Sprague-Dawley male rats; 30 mg/kg/d for 7 days, 90 minute time point, 30 mg/kg/day", "result": "increased insulin sensitivity; also recorded: decreased significantly"}, {"measurement": "insulin sensitivity curve", "setting": "Sprague-Dawley male rats; 60 mg/kg/d for 7 days, 30 minute time point, 60 mg/kg/day", "result": "increased insulin sensitivity; also recorded: decreased significantly"}, {"measurement": "insulin sensitivity curve", "setting": "Sprague-Dawley male rats; 60 mg/kg/d for 7 days, 60 minute time point, 60 mg/kg/day", "result": "increased insulin sensitivity; also recorded: decreased significantly"}, {"measurement": "insulin sensitivity curve", "setting": "Sprague-Dawley male rats; 60 mg/kg/d for 7 days, 90 minute time point, 60 mg/kg/day", "result": "increased insulin sensitivity; also recorded: decreased significantly"}, {"measurement": "insulin sensitivity curve", "setting": "Sprague-Dawley male rats; 120 mg/kg/d for 7 days, 60 minute time point, 120 mg/kg/day", "result": "increased insulin sensitivity; also recorded: decreased significantly"}, {"measurement": "weight of rats", "setting": "[2]; 60 mg/kg/d for 3 weeks", "result": "significantly reduced; also recorded: significantly decreased"}, {"measurement": "weight of rats", "setting": "[2]; 120 mg/kg/d for 3 weeks", "result": "had not statistically difference; also recorded: not statistically significant"}, {"measurement": "serum low-density lipoprotein / low-density cholesterol (LDL-C)", "setting": "ApoE knockout mice; [5]", "result": "reduce; also recorded: significantly decrease"}, {"measurement": "serum total cholesterol (TC)", "setting": "ApoE knockout mice; [5]", "result": "reduce; also recorded: significantly decrease"}, {"measurement": "serum triglycerides / triacylglycerol (TG)", "setting": "ApoE knockout mice; [5]", "result": "reduce; also recorded: significantly decrease"}, {"measurement": "serum total cholesterol (TC)", "setting": "ApoE knockout mice; middle dose group 20 mg/kg/day intragastric, vs model group", "result": "reduced"}, {"measurement": "serum low-density cholesterol (LDL-C)", "setting": "ApoE knockout mice; [6]", "result": "reduced; also recorded: decrease"}, {"measurement": "serum triacylglycerol (TG)", "setting": "ApoE knockout mice; [6]", "result": "reduced; also recorded: decrease"}, {"measurement": "toxicity", "setting": "[3]", "result": "very low"}]}]}
